Test results taken from ChEMBL document CHEMBL6087386, “Radioprotective effectiveness of a novel delta-tocotrienol prodrug on mouse hematopoietic system against 60Co gamma-ray irradiation through inducing granulocyte-colony stimulating factor production” (Eur J Med Chem, 2024).
Active and inactive are the calls of the source. The rule behind the calls is not given here.

Key:
Mus musculus [1] = assay: Induction of G-CSF production in C57BL/6J mouse model at 100 mg/kg, sc measured for 24 hrs by ELISA analysis; format: functional, organism-based
Mus musculus [2] = assay: Radioprotective activity in C57BL/6J mouse assessed as survival rate at 100 mg/kg, sc preincubated with compound for 24 hrs followed by total body irradiation with 8.5 Gy and measured after 20 days by Kaplan-meier plot analysis; format: functional; conditions: light or radiation study, 504 h, time 21 day
Mus musculus [3] = assay: Radioprotective activity in C57BL/6J mouse assessed as survival rate at 100 mg/kg, sc preincubated with compound for 24 hrs followed by total body irradiation with 8.5 Gy and measured after 30 days by Kaplan-meier plot analysis; format: functional; conditions: Mus musculus, C57BL/6J, light or radiation study, 744 h, time 31 day
Mus musculus [4] = assay: Radioprotective activity in C57BL/6J mouse assessed as […] in survival rate at 100 mg/kg, sc preincubated with compound for 24 hrs followed by total body irradiation with 9.5 Gy and measured after 30 days by Kaplan-meier plot analysis; format: functional, organism-based; conditions: time 31.0 day
Mus musculus [5] = assay: Radioprotective activity in C57BL/6J mouse assessed as survival rate at 100 mg/kg, sc preincubated with compound for 24 hrs followed by total body irradiation with 9.5 Gy and measured after 30 days by Kaplan-meier plot analysis; format: functional; conditions: light or radiation study, 744 h, time 31 day
[6] = Stability in C57BL/6J mouse whole blood assessed as half-life; format: ADME, tissue-based
[7] = Stability in C57BL/6J mouse plasma assessed as half-life; format: ADME, cell-free
[8] = Stability in […] human plasma assessed as half-life; format: ADME, cell-free
[9] = Tmax in ICR mouse at 100 mg/kg, iv measured upto 24 hrs by LC-MS/MS analysis; format: ADME, organism-based; conditions: in vivo
[10] = Tmax in ICR mouse at 100 mg/kg, sc measured upto 24 hrs by LC-MS/MS analysis; format: ADME, organism-based; conditions: in vivo
[11] = Cmax in ICR mouse at 100 mg/kg, iv measured upto 24 hrs by LC-MS/MS analysis; format: ADME, organism-based; conditions: in vivo
[12] = Cmax in ICR mouse at 100 mg/kg, sc measured upto 24 hrs by LC-MS/MS analysis; format: ADME, organism-based; conditions: in vivo
[13] = Half life in ICR mouse at 100 mg/kg, iv measured upto 24 hrs by LC-MS/MS analysis; format: ADME, organism-based; conditions: in vivo
[14] = Clearance in ICR mouse at 100 mg/kg, iv measured upto 24 hrs by LC-MS/MS analysis; format: ADME, organism-based; conditions: in vivo
[15] = MRT (0 to t) in ICR mouse at 100 mg/kg, iv measured upto 24 hrs by LC-MS/MS analysis; format: ADME, organism-based; conditions: in vivo
[16] = MRT (0 to t) in ICR mouse at 100 mg/kg, sc measured upto 24 hrs by LC-MS/MS analysis; format: ADME, organism-based; conditions: in vivo
[17] = MRT (0 to infinity) in ICR mouse at 100 mg/kg, iv measured upto 24 hrs by LC-MS/MS analysis; format: ADME, organism-based; conditions: in vivo, iv, 100 mg/kg, 24 h
[18] = Volume of distribution at steady state in ICR mouse at 100 mg/kg, iv measured upto 24 hrs by LC-MS/MS analysis; format: ADME, organism-based; conditions: in vivo, iv, 100 mg/kg, 24 h
[19] = Bioavailability in ICR mouse at 100 mg/kg, sc measured upto 24 hrs by LC-MS/MS analysis; format: ADME, organism-based; conditions: in vivo
[20] = Drug concentration in C57BL/6J mouse plasma at 100 mg/kg, sc measured after 24 hrs; format: ADME, organism-based; conditions: in vivo
Mus musculus [21] = assay: Radioprotective activity in C57BL/6J mouse assessed as increase in G-CSF production in serum at 100 mg/kg, sc; format: functional, organism-based; conditions: time 24.0 hrs
Mus musculus [22] = assay: Radioprotective activity in C57BL/6J mouse assessed as increase in G-CSF production in serum at 100 mg/kg, sc measured for 72 hrs; format: functional, organism-based
Mus musculus [23] = assay: Radioprotective activity in C57BL/6J mouse assessed as increase in G-CSF production in serum at 100 mg/kg, sc measured for 6 to 24 hrs; format: functional, organism-based; conditions: time 6-24 hrs
Mus musculus [24] = assay: Radioprotective activity in C57BL/6J mouse assessed as increase in WBC count at 100 mg/kg, sc preincubated with compound for 24 hrs followed by total body irradiation with 6.5 Gy and measured after 30 days; format: functional, organism-based; conditions: time 31.0 day
Mus musculus [25] = assay: Radioprotective activity in C57BL/6J mouse assessed as increase in neutrophils at 100 mg/kg, sc preincubated with compound for 24 hrs followed by total body irradiation with 6.5 Gy and measured after 30 days; format: functional, organism-based; conditions: time 31.0 day
Mus musculus [26] = assay: Radioprotective activity in C57BL/6J mouse assessed as increase in platelets count at 100 mg/kg, sc preincubated with compound for 24 hrs followed by total body irradiation with 6.5 Gy and measured after 30 days; format: functional, organism-based; conditions: time 31.0 day
Mus musculus [27] = assay: Radioprotective activity in C57BL/6J mouse assessed as increase in RBC count at 100 mg/kg, sc preincubated with compound for 24 hrs followed by total body irradiation with 6.5 Gy and measured after 30 days; format: functional, organism-based; conditions: time 31.0 day
Mus musculus [28] = assay: Radioprotective activity in C57BL/6J mouse assessed as increase in neutrophils at 100 mg/kg, sc preincubated with compound for 24 hrs followed by total body irradiation with 6.5 Gy and measured on day 7; format: functional, organism-based; conditions: time 8.0 day
Mus musculus [29] = assay: Radioprotective activity in C57BL/6J mouse assessed as increase in platelet count at 100 mg/kg, sc preincubated with compound for 24 hrs followed by total body irradiation with 6.5 Gy and measured on day 10; format: functional, organism-based; conditions: time 11.0 day
Mus musculus [30] = assay: Radioprotective activity in C57BL/6J mouse assessed as increase in RBC count at 100 mg/kg, sc preincubated with compound for 24 hrs followed by total body irradiation with 6.5 Gy and measured on day 14; format: functional, organism-based; conditions: time 15.0 day
Mus musculus [31] = assay: Radioprotective activity in C57BL/6J mouse assessed as increase in number of total bone marrow cells at 100 mg/kg, sc preincubated with compound for 24 hrs followed by total body irradiation with 6.5 Gy and measured after 30 days; format: functional, organism-based; conditions: time 31.0 day
Mus musculus [32] = assay: Radioprotective activity in C57BL/6J mouse assessed as increase in percentage of LK cells at 100 mg/kg, sc preincubated with compound for 24 hrs followed by total body irradiation with 6.5 Gy and measured after 30 days; format: functional, organism-based; conditions: time 31.0 day
Mus musculus [33] = assay: Radioprotective activity in C57BL/6J mouse assessed as increase in percentage of LSK cells at 100 mg/kg, sc preincubated with compound for 24 hrs followed by total body irradiation with 6.5 Gy and measured after 30 days; format: functional, organism-based; conditions: time 31.0 day
Mus musculus [34] = assay: Radioprotective activity in C57BL/6J mouse assessed as increase in long term hematopoietic stem cell frequency in LSK compartment at 100 mg/kg, sc preincubated with compound for 24 hrs followed by total body irradiation with 6.5 Gy and measured after 30 days; format: functional, organism-based; conditions: time 31.0 day
Mus musculus [35] = assay: Radioprotective activity in C57BL/6J mouse assessed as increase in multipotent progenitor frequency in LSK compartment at 100 mg/kg, sc preincubated with compound for 24 hrs followed by total body irradiation with 6.5 Gy and measured after 30 days; format: functional, organism-based; conditions: time 31.0 day
Mus musculus [36] = assay: Radioprotective activity in C57BL/6J mouse assessed as effect on LT-HSC number at 100 mg/kg, sc preincubated with compound for 24 hrs followed by total body irradiation with 6.5 Gy and measured after 30 days; format: functional, organism-based; conditions: time 31.0 day
Mus musculus [37] = assay: Radioprotective activity in C57BL/6J mouse assessed as increase in ST-HSC number at 100 mg/kg, sc preincubated with compound for 24 hrs followed by total body irradiation with 6.5 Gy and measured after 30 days; format: functional, organism-based; conditions: time 31.0 day
Mus musculus [38] = assay: Radioprotective activity in C57BL/6J mouse assessed as increase in MPP number at 100 mg/kg, sc preincubated with compound for 24 hrs followed by total body irradiation with 6.5 Gy and measured after 30 days; format: functional, organism-based; conditions: time 31.0 day
Mus musculus [39] = assay: Radioprotective activity in C57BL/6J mouse assessed as splenomegaly at 100 mg/kg, sc preincubated with compound for 24 hrs followed by total body irradiation with 6.5 Gy and measured after 10 days; format: functional, organism-based; conditions: time 11.0 day
Mus musculus [40] = assay: Radioprotective activity in C57BL/6J mouse assessed as increase in spleen coefficient at 100 mg/kg, sc preincubated with compound for 24 hrs followed by total body irradiation with 6.5 Gy and measured after 10 days; format: functional, organism-based; conditions: time 11.0 day
Mus musculus [41] = assay: Radioprotective activity in C57BL/6J mouse assessed as fold increase in total number of splenic nucleated cells at 100 mg/kg, sc preincubated with compound for 24 hrs followed by total body irradiation with 6.5 Gy and measured after 10 days; format: functional; conditions: time 11 day
Mus musculus [42] = assay: Radioprotective activity in C57BL/6J mouse assessed as effect on splenic LT-HSCs number at 100 mg/kg, sc preincubated with compound for 24 hrs followed by total body irradiation with 6.5 Gy and measured after 10 days; format: functional, organism-based; conditions: time 11.0 day

Structure (SMILES): CC(C)=CCC/C(C)=C/CC/C(C)=C/CC[C@]1(C)CCc2cc(OC(=O)CCC(=O)O)cc(C)c2O1
- Activity (Mus musculus [1]): Active
- survival at 100 mg/kg (Mus musculus [2]): 70%
- survival at 100 mg/kg (Mus musculus [3]): 90%
- Activity (Mus musculus [4]): inactive
- survival at 100 mg/kg (Mus musculus [5]): 90%
- half-life [6]: 9.3 min
- half-life [7]: 3.73 h
- half-life [8]: 1.92 h
- Tmax [9]: 4.98 min
- Tmax [10]: 4.98 min
- Cmax [11]: 5.15 ng/mL
- Cmax [12]: 2.02 ng/mL
- half-life [13]: 10.4 h
- CL [14]: 3.7553 mL/min/kg
- MRT last at 24 h [15]: 1.36 h
- MRT last at 24 h [16]: 11.9 h
- MRT [17]: 3.47 h
- Vdss [18]: 0.33658 L/kg
- F [19]: 13.86%
- Drug uptake [20]: Active
- Activity (Mus musculus [21]): Time-dependent-effect
- Activity (Mus musculus [22]): Active
- Activity (Mus musculus [23]): Active
- Activity (Mus musculus [24]): Active
- Activity (Mus musculus [25]): Active
- Activity (Mus musculus [26]): Active
- Activity (Mus musculus [27]): Active
- Activity (Mus musculus [28]): Active
- Activity (Mus musculus [29]): Active
- Activity (Mus musculus [30]): Active
- Activity (Mus musculus [31]): Active
- Activity (Mus musculus [32]): Active
- Activity (Mus musculus [33]): Active
- Activity (Mus musculus [34]): Active
- Activity (Mus musculus [35]): Active
- Activity (Mus musculus [36]): inactive
- Activity (Mus musculus [37]): Active
- Activity (Mus musculus [38]): Active
- Activity (Mus musculus [39]): Active
- Activity (Mus musculus [40]): Active
- fold change (FC) (Mus musculus [41]): ~2.5
- Activity (Mus musculus [42]): Active
